Values of other authors as cited in article PMC2074382 (British Journal of Cancer, 1996).
Counter-ions that a name gives are not always drawn.

Test system: HT-29 and SW-48 colon, PC-3 prostate, MX-1 breast, H460 lung, SKOV3 ovarian and KB epidermoid carcinomas xenografts
Conditions: HT-29, SW-48, PC-3, MX-1, H460, SKOV3, KB; ref Emerson et al., 1993, 1994, 1995; cited from earlier work

CC[C@@]1(O)C(=O)OCc2c1cc1n(c2=O)Cc2c-1nc1cc3c(cc1c2CN1CCN(C)CC1)OCCO3 [GI147211, [7 - (methylpiperazinomethylene) - 10,11 - ethylene-dioxy-20(S)] camptothecin dihydrochloride]
cytotoxicity against xenografts of human cancers: cytotoxicity against several xenografts of human cancers
